Biological target: T1, hSK2 channels (Homo sapiens, UniProt P0DP23+Q9H2S1)
T1 construct: expressed in transfected cells; host or cells: HEK293
Experiment: Whole-cell patch-clamp recording of SK2 channel current (SC100)
Format: cell-based
Conditions: Stimulating Concentration required for increasing the baseline current by 100%; HEK293 cells expressing hSK2; Table 3
Protocol: The biological activity of certain compounds were determined as follows. The ionic current through small-conductance Ca^2+-activated K^+ channels (SK channels, subtype 2) is recorded using the whole-cell configuration of the patch-clamp technique in a classic patch-clamp set-up using HEK293 tissue culture cells expressing hSK2 channels as described in Kasumu et. al., Chemistry & Biology 19, 1340-1353, Oct. 26, 2012.
The SC100 value determined is defined as the Stimulating Concentration required for increasing the baseline current by 100%.

Row | Compound | SC100 uM
1 | CC(=O)N1CCN(c2cc(Nc3ccc(F)cc3F)nc(-n3nc(C)cc3C)n2)CC1 [Compound 105, 1-(4-(6-((2,4-difluorophenyl)amino)-2-(3,5-dimethyl-1H-pyrazol-1-yl)pyrimidin-4-yl)piperazin-1-yl)ethan-1-one] | ++ (++ means 200 nM-1000 nM)
2 | Cc1cc(C)n(-c2nc(Nc3ccc(Cl)cc3)nc3c2ncn3CC#N)n1 [Compound 130, 2-(2-((4-chlorophenyl)amino)-6-(3,5-dimethyl-1H-pyrazol-1-yl)-9H-purin-9-yl)acetonitrile] | ++ (++ means 200 nM-1000 nM)
3 | Cc1cc(Nc2ccc(Cl)c(C(F)(F)F)c2)nc(-n2ccc(C)n2)n1 [Compound 136, N-(4-chloro-3-(trifluoromethyl)phenyl)-6-methyl-2-(3-methyl-1H-pyrazol-1-yl)pyrimidin-4-amine] | +++ (+++ means <200 nM)
4 | Cc1cc(C)n(-c2nc(Nc3ccc(F)cc3F)cc(N3CCNC(C(N)=O)C3)n2)n1 (stereo not shown) [Compound 115, 4-(6-((2,4-difluorophenyl)amino)-2-(3,5-dimethyl-1H-pyrazol-1-yl)pyrimidin-4-yl)piperazine-2-carboxamide] | ++ (++ means 200 nM-1000 nM)
5 | Cc1cc(Nc2ccc(Cl)cc2)nc(-n2ccc(C(C)(C)O)n2)c1 [Compound 145, 2-(1-(6-((4-chlorophenyl)amino)-4-methylpyridin-2-yl)-1H-pyrazol-3-yl)propan-2-ol] | ++ (++ means 200 nM-1000 nM)
6 | Cc1cc(C)n(-c2cc(N3CCOC(C(N)=O)C3)nc(Nc3ccc(F)c(F)c3)n2)n1 (racemic) [Compound 129, 4-(2-((3,4-difluorophenyl)amino)-6-(3,5-dimethyl-1H-pyrazol-1-yl)pyrimidin-4-yl)morpholine-2-carboxamide] | +++ (+++ means <200 nM)
7 | N#Cc1ccn(-c2nc(Nc3ccc(Cl)cc3)cc(N3CC4(COC4)C3)n2)n1 [Compound 143, 1-(4-((4-chlorophenyl)amino)-6-(2-oxa-6-azaspiro[3.3]heptan-6-yl)pyrimidin-2-yl)-1h-pyrazole-3-carbonitrile] | ++ (++ means 200 nM-1000 nM)
8 | Cc1cc(C)n(-c2cc(N3CCO[C@@H](C(N)=O)C3)nc(Nc3ccc(F)c(F)c3)n2)n1 (single isomer, unassigned) [Compound 132, (−)-4-(2-((3,4-difluorophenyl)amino)-6-(3,5-dimethyl-1H-pyrazol-1-yl)pyrimidin-4-yl)morpholine-2-carboxamide] | +++ (+++ means <200 nM)
9 | CC(=O)NCc1cc(Nc2ccc(Cl)cc2)nc(-n2ccc(CF)n2)c1 [Compound 164, N-((2-((4-chlorophenyl)amino)-6-(3-(fluoromethyl)-1H-pyrazol-1-yl)pyridin-4-yl)methyl)acetamide] | +++ (+++ means <200 nM)
10 | Cc1cc(C)n(-c2nc(Nc3ccc(F)cc3F)cc(N3CCN[C@H](C(N)=O)C3)n2)n1 (single isomer, unassigned) [Compound 128, (+)-4-(6-((2,4-difluorophenyl)amino)-2-(3,5-dimethyl-1H-pyrazol-1-yl)pyrimidin-4-yl)piperazine-2-carboxamide] | + (+ means >1 uM)
11 | Cc1cc(C)n(-c2nc(Nc3ccc(Cl)cc3)nc3c2ncn3CCO)n1 [Compound 135, 2-(2-((4-chlorophenyl)amino)-6-(3,5-dimethyl-1H-pyrazol-1-yl)-9H-purin-9-yl)ethan-1-ol] | ++ (++ means 200 nM-1000 nM)
12 | Cc1cc(C)n(Cc2cc(Nc3ccc(F)cc3)nc(-n3ccc(CO)n3)c2)n1 [Compound 169, (1-(4-((3,5-dimethyl-1H-pyrazol-1-yl)methyl)-6-((4-fluorophenyl)amino)pyridin-2-yl)-1H-pyrazol-3-yl)methanol] | + (+ means >1 uM)
13 | CC(O)c1ccn(-c2nc(Nc3ccc(F)cc3)cc(N3CCOCC3)n2)n1 (stereo not shown) [Compound 146, 1-(1-(4-((4-fluorophenyl)amino)-6-morpholinopyrimidin-2-yl)-1H-pyrazol-3-yl)ethan-1-ol] | + (+ means >1 uM)
14 | Cc1cc(C)n(-c2cc3ccn(C)c3c(Nc3ccc(Cl)cc3)n2)n1 [Compound 144, N-(4-chlorophenyl)-5-(3,5-dimethyl-1H-pyrazol-1-yl)-1-methyl-1H-pyrrolo [2,3-c]pyridin-7-amine] | + (+ means >1 uM)
15 | Cc1cc(C)n(-c2cc(N3CC4(COC4)C3)nc(Nc3ccc(F)cc3F)n2)n1 [Compound 107, N-(2,4-difluorophenyl)-4-(3,5-dimethyl-1H-pyrazol-1-yl)-6-(2-oxa-6-azaspiro[3.3]heptan-6-yl)pyrimidin-2-amine] | + (+ means >1 uM)
16 | CC(=O)NCc1cc(Nc2ccc(Cl)cc2)nc(-n2ccc(C(F)F)n2)c1 [Compound 165, N-((2-((4-chlorophenyl)amino)-6-(3-(difluoromethyl)-1H-pyrazol-1-yl)pyridin-4-yl)methyl)acetamide] | ++ (++ means 200 nM-1000 nM)
17 | CC(=O)N1CCN(c2cc(Nc3ccc(F)cc3)nc(-n3nc(C)cc3C)n2)CC1 [Compound 102, 1-(4-(2-(3,5-dimethyl-1H-pyrazol-1-yl)-6-((4-fluorophenyl)amino)pyrimidin-4-yl)piperazin-1-yl)ethan-1-one] | ++ (++ means 200 nM-1000 nM)
18 | Cc1cc(Nc2ccc(F)cc2)nc(-n2ccc(CF)n2)n1 [Compound 141, 2-(3-(fluoromethyl)-1H-pyrazol-1-yl)-N-(4-fluorophenyl)-6-methylpyrimidin-4-amine] | ++ (++ means 200 nM-1000 nM)
19 | Cc1cc(C)n(-c2nc(Nc3ccc(Cl)cc3)cc(NC(C)C(N)=O)n2)n1 (stereo not shown) [Compound 114, 2-((6-((4-chlorophenyl)amino)-2-(3,5-dimethyl-1H-pyrazol-1-yl)pyrimidin-4-yl)amino)propanamide] | ++ (++ means 200 nM-1000 nM)
20 | Cc1cc(C)n(-c2nc(Nc3ccc(F)c(F)c3)cc(NC(C)C(N)=O)n2)n1 (stereo not shown) [Compound 126, 2-((6-((3,4-difluorophenyl)amino)-2-(3,5-dimethyl-1H-pyrazol-1-yl)pyrimidin-4-yl)amino)propanamide] | ++ (++ means 200 nM-1000 nM)

Same assay, conditions: Stimulating Concentration required for increasing the baseline current by 100%; HEK293 cells expressing hSK2; Table 4

Row | Compound | SC100 (μM)
21 | Cc1ccn(-c2cc(CO)cc(Nc3ccc(F)cc3F)n2)n1 [NSSy6773, (2-((2,4-difluorophenyl)amino)-6-(3-methyl-1H-pyrazol-1-yl)pyridin-4-yl) methanol] | ++ (++ means 200 nM-1000 nM)
22 | COc1cc(Nc2ccc(F)cc2)nc(-c2cccc(C)n2)n1 [NSSy6908] | + (+ means >1 uM)
23 | CC1(O)CN(c2cc(Nc3ccc(F)cc3)nc(-n3ccc(CF)n3)c2)C1 [NSSy5632] | +++ (+++ means <200 nM)
24 | Cc1csc(-c2nc(Nc3ccc(F)cc3)cc(C(C)O)n2)n1 (stereo not shown) [IN10880-091-P1, 1-(6-((4-fluorophenyl)amino)-2-(4-methylthiazol-2-yl)pyrimidin-4-yl)ethan-1-ol] | ++ (++ means 200 nM-1000 nM)
25 | CC(=O)c1cc(Nc2cccc(C(F)(F)F)c2)nc(-n2ccc(C)n2)n1 [IN10876-038-P1] | + (+ means >1 uM)
26 | COc1cc(Nc2ccc(F)cc2)nc(-c2nc(C)cs2)n1 [IN11059-059-P1] | ++ (++ means 200 nM-1000 nM)
27 | Cc1cccc(-c2nccc(Nc3ccc(F)cc3)n2)n1 [IN11130-036-P1] | + (+ means >1 uM)
28 | Cc1ccn(-c2nc(Nc3ccc(F)cc3)cc(C(C)O)n2)n1 (stereo not shown) [IN10882-054-P1] | ++ (++ means 200 nM-1000 nM)
29 | Cc1ccn(-c2nc(Nc3ccccc3Cl)cc(C(C)O)n2)n1 (stereo not shown) [IN10881-055-P1] | ++ (++ means 200 nM-1000 nM)
30 | Cc1cc(Nc2ccc(F)cc2)nc(-n2ccc(C3CC3)n2)n1 [NSSy6921, 2-(3-cyclopropyl-1H-pyrazol-1-yl)-N-(4-fluorophenyl)-6-methylpyrimidin-4-amine] | + (+ means >1 uM)
31 | Cc1cc(C)n(-c2nc(Nc3cccc(C(F)(F)F)c3)cc(C(C)O)n2)n1 (stereo not shown) [IN10973-007-P1] | +++ (+++ means <200 nM)
32 | Cc1ccn(-c2cc(CN3CCCC3=O)cc(Nc3ccc(Cl)cc3)n2)n1 [NSSy5701, 1-((2-((4-chlorophenyl)amino)-6-(3-methyl-1H-pyrazol-1-yl)pyridin-4-yl)methyl) pyrrolidin-2-one] | +++ (+++ means <200 nM)
33 | Cc1ccn(-c2nc(Nc3cccc(C(F)(F)F)c3)cc(C(C)O)n2)n1 (stereo not shown) [IN10876-033-P1] | ++ (++ means 200 nM-1000 nM)
34 | Fc1ccc(Nc2ccnc(-n3ccc(C4CC4)n3)n2)cc1 [IN11166-018-P1, 2-(3-cyclopropyl-1H-pyrazol-1-yl)-N-(4-fluorophenyl) pyrimidin-4-amine] | + (+ means >1 uM)

Source: patent US20170355708A1, “POTASSIUM CHANNEL MODULATORS” (Cadent Therapeutics, Inc., priority 2016, published 2017)
